Measured values reported in the supplement of paper PMC10307832.

Legend:
Assay in all cases: relative viability (nuclei count vs DMSO), 5 days (fraction); higher = more cells survive
Motesanib + OSI-027 = compound: CC1(C)CNc2cc(NC(=O)c3cccnc3NCc3ccncc3)ccc21 [Motesanib] + COc1cccc2cc(-c3nc([C@H]4CC[C@H](C(=O)O)CC4)n4ncnc(N)c34)[nH]c12 [OSI-027] (partner 0.5 µM)
Method in brief: (§1)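 Lung cancer cell lines, seeded in 1536-well plates, were treated the following day by pin tool with a single drug or with five library-drug doses (not always all listed) in √10 steps on top of a fixed anchor-drug dose. Cells were fixed and nuclei stained in one step after 5 days, and nuclei were counted. Relative viability is the nuclei count for treated wells divided by that for vehicle wells, reported as medians of duplicate plates.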

[1] = compound: C[C@@]1(C(=O)Nc2ccc(F)nc2)CCCN1c1nc(Nc2cc(C3CC3)n[nH]2)c2cccn2n1 + CS(=O)(=O)CCNCc1ccc(-c2ccc3ncnc(Nc4ccc(OCc5cccc(F)c5)c(Cl)c4)c3c2)o1 [Lapatinib] (partner 2 µM)
Method in brief: as §1

[2] = compound: C[C@@]1(C(=O)Nc2ccc(F)nc2)CCCN1c1nc(Nc2cc(C3CC3)n[nH]2)c2cccn2n1 + Cc1nc(Nc2ncc(C(=O)Nc3c(C)cccc3Cl)s2)cc(N2CCN(CCO)CC2)n1 [Dasatinib] (partner 0.075 µM)
Method in brief: as §1

Motesanib + Pictilisib = compound: CC1(C)CNc2cc(NC(=O)c3cccnc3NCc3ccncc3)ccc21 [Motesanib] + CS(=O)(=O)N1CCN(Cc2cc3nc(-c4cccc5[nH]ncc45)nc(N4CCOCC4)c3s2)CC1 [Pictilisib] (partner 1 µM)
Method in brief: as §1

Row | Cell Line | relative viability (Motesanib + OSI-027; first compound 0.01 µM) | relative viability (Motesanib + OSI-027; first compound 0.03162 µM) | relative viability (Motesanib + OSI-027; first compound 0.1 µM) | relative viability (Motesanib + OSI-027; first compound 0.3162 µM) | relative viability (Motesanib + OSI-027; first compound 1 µM) | relative viability ([1]; first compound 0.04 µM) | relative viability ([1]; first compound 0.1265 µM) | relative viability ([1]; first compound 0.4 µM) | relative viability ([1]; first compound 1.265 µM) | relative viability ([2]; first compound 0.04 µM) | relative viability ([2]; first compound 0.1265 µM) | relative viability ([2]; first compound 0.4 µM) | relative viability ([2]; first compound 1.265 µM) | relative viability (Motesanib + Pictilisib; first compound 0.01 µM) | relative viability (Motesanib + Pictilisib; first compound 0.03162 µM) | relative viability (Motesanib + Pictilisib; first compound 0.1 µM) | relative viability (Motesanib + Pictilisib; first compound 0.3162 µM) | relative viability (Motesanib + Pictilisib; first compound 1 µM)
1 | NCI-H1944 | 0.37 | 0.424 | 0.438 | 0.475 | 0.427 | 0.679 | 0.536 | 0.426 | 0.582 | 0.173 | 0.154 | 0.145 | 0.166 | 0.322 | 0.342 | 0.399 | 0.379 | 0.364
2 | NCI-H1793 | 0.26 | 0.272 | 0.261 | 0.284 | 0.302 | 0.801 | 0.469 | 0.568 | 0.53 | 0.448 | 0.36 |  | 0.335 | 0.364 | 0.282 | 0.301 | 0.34 | 0.469
3 | NCI-H520 | 0.29 | 0.226 | 0.231 | 0.24 | 0.253 | 0.98 | 0.841 | 0.826 | 0.875 | 0.207 | 0.176 | 0.176 | 0.229 | 0.269 | 0.267 | 0.345 | 0.284 | 0.207
4 | NCI-H460 | 0.616 | 0.633 | 0.619 | 0.635 | 0.632 | 1.05 | 0.798 | 0.886 | 0.829 | 0.258 | 0.101 | 0.0641 | 0.0353 | 0.356 | 0.424 | 0.302 | 0.364 | 0.493
5 | EKVX | 0.684 | 0.655 | 0.788 | 0.732 | 0.674 | 0.184 | 0.162 | 0.137 | 0.133 | 0.439 | 0.4 | 0.32 | 0.294 | 0.483 | 0.445 | 0.462 | 0.472 | 0.506
6 | NCI-H358 | 0.9 | 0.802 | 0.767 | 0.906 | 0.716 | 0.304 | 0.22 | 0.259 | 0.251 | 0.128 | 0.123 | 0.103 | 0.124 | 0.303 | 0.336 | 0.351 | 0.435 | 0.338
7 | EPLC-272H | 0.236 | 0.311 |  | 0.263 | 0.244 | 0.885 | 0.668 | 0.601 | 0.72 | 0.275 |  | 0.157 | 0.084 | 0.296 | 0.176 | 0.267 | 0.317 | 0.309
8 | NCI-H1563 | 0.754 | 0.799 | 0.797 | 0.752 | 0.704 | 1.1 | 0.921 | 0.755 | 0.723 | 0.404 | 0.413 | 0.343 | 0.323 | 0.65 | 0.645 | 0.68 | 0.64 | 0.678
9 | NCI-H1395 | 0.576 | 0.579 | 0.658 | 0.636 | 0.564 | 1.17 | 0.86 | 0.885 | 0.988 | 0.374 | 0.34 | 0.388 | 0.378 | 0.61 | 0.566 | 0.609 | 0.646 | 0.703
10 | NCI-H2126 | 0.815 | 0.737 | 0.674 | 0.774 | 0.781 | 0.693 | 0.454 | 0.376 | 0.399 | 0.346 | 0.242 | 0.262 | 0.294 | 0.531 | 0.539 | 0.476 | 0.553 | 0.508
11 | LXF-289 | 0.708 | 0.841 | 0.857 | 0.912 | 0.886 | 0.914 | 0.856 | 0.831 | 0.802 | 0.13 | 0.119 | 0.0865 | 0.0646 | 0.776 | 0.811 | 0.774 | 0.806 | 0.835
12 | NCI-H2009 | 0.646 | 0.689 | 0.713 | 0.593 | 0.623 | 1.04 | 1.02 | 0.856 | 0.607 | 0.279 | 0.224 | 0.166 | 0.154 | 0.734 | 0.732 | 0.818 | 0.827 | 0.873
13 | NCI-H2405 |  | 0.59 | 0.683 | 0.663 | 0.719 | 0.762 | 0.706 | 0.76 | 0.744 | 0.211 | 0.177 | 0.185 | 0.186 |  | 0.393 | 0.433 | 0.425 | 0.434
14 | NCI-H1755 | 0.661 | 0.682 | 0.746 | 0.826 | 0.652 | 1.02 | 0.864 | 0.858 | 0.994 | 0.29 | 0.262 | 0.241 | 0.171 | 0.395 | 0.423 | 0.442 | 0.454 | 0.402
15 | HCC-78 | 0.343 | 0.348 | 0.405 | 0.345 | 0.297 | 0.826 | 0.476 | 0.186 | 0.186 | 0.421 | 0.269 | 0.256 | 0.184 | 0.182 | 0.198 | 0.174 | 0.207 | 0.182
16 | LOU-NH91 | 0.717 | 0.764 | 0.721 | 0.722 | 0.743 | 0.671 | 0.567 | 0.601 | 0.564 | 0.461 | 0.449 | 0.395 | 0.286 | 0.466 | 0.523 | 0.563 | 0.547 | 0.568
17 | NCI-H3122 | 0.836 | 0.962 | 0.933 | 1.08 | 1.23 | 0.94 | 1.03 | 0.958 | 1.03 | 0.581 | 0.786 | 0.348 | 0.677 | 0.46 | 0.534 | 0.618 | 0.626 | 0.667
18 | HCC-827 | 0.669 | 0.809 | 0.749 | 0.761 | 0.755 | 0.224 | 0.214 | 0.17 | 0.175 | 0.34 | 0.395 | 0.222 | 0.339 | 1.12 | 1.13 | 0.866 | 1.01 | 1.04
